In US6774211B1, “Peptide antiangiogenic drugs” (Abbott Laboratories, priority 1998, dated 2004):
Where a SMILES comes first, the peptide text is derived from it. [ ]: non-standard residue; d: D form. Nva = CCC[C@H](N)C(=O)O; Sar = CNCC(=O)O

These compounds were tested on Human Microvascular Endothelial Cells (HMVEC) (assay: Human microvascular endothelial cell (HMVEC) migration assay, modified Boyden chamber). Conditions: 10 nM; migration stimulated with 15 ng/ml bFGF/VEGF; compared to positive control.
Assay type: cell-based
Experimental: The human microvascular endothelial (HMVEC) migration assay was run according to the procedure of S. S. Tolsma, O. V. Volpert, D. J. Good, W. F. Frazier, P. J. Polverini and N. Bouck, J. Cell Biol. 122, 497-511 (1993).
The HMVEC migration assay was carried out using Human Microvascular Endothelial Cells-Dermal (single donor) and Human Microvascular Endothelial Cells, (neonatal). The BCE or HMVEC cells were starved overnight in DME containing 0.1% bovine serum albumin (BSA). Cells were then harvested with trypsin and resuspended in DME with 0.1% BSA at a concentration of 1.5×10^6 cells per ml. Cells were added to the bottom of a 48 well modified Boyden chamber (Nucleopore Corporation, Cabin John, Md.). The chamber was assembled and inverted, and cells were allowed to attach for 2 hours at 37° C. to polycarbonate chemotaxis membranes (5 μm pore size) that had been soaked in 0.1% gelatin overnight and dried. The chamber was then reinverted, and test substances (total volume of 50 μl), including activators, 15 ng/ml bFGF/VEGF, were added to the wells of the upper chamber. The apparatus was incubated for 4 hours at 37° C. Membranes were recovered, fixed and stained (Diff Quick, Fisher Scientific) and the number of cells that had migrated to the upper chamber per […] high power fields counted. Background migration to DME+0.1 BSA was subtracted and the data reported as the number of cells migrated per 10 high power fields (400×) or, when results from multiple experiments were combined, as the percent inhibition of migration compared to a positive control.

In order of rising “% Inhib. @ 10 nM” value:
1. N-Ac-Sar-Gly-Val-D-Cha-Thr-Nva-Ile-Arg-ProNHCH2CH3 [Example 28]  47.0%
2. N-Ac-Sar-Gly-Val-D-Val-Thr-Nva-Ile-Arg-ProNHCH2CH3 [Example 18]  51.4%
3. CCC[C@H](NC(=O)[C@@H](NC(=O)[C@H](NC(=O)[C@@H](NC(=O)CNC(=O)CN(C)C(C)=O)C(C)C)[C@H](C)CC)[C@@H](C)O)C(=O)N[C@H](C(=O)N[C@@H](CCCNC(=N)N)C(=O)N1CCC[C@H]1C(=O)NCC)[C@@H](C)CC [Example 1, N-Ac-Sar-Gly-Val-D-Ile-Thr-Nva-Ile-Arg-ProNHCH2CH3] (Ac-[Sar]GV[dI]T[Nva]IRP-NHEt)  76.9%
4. N-(Tetrahydro-2-furoyl)-Sar-Gly-Val-D-Ile-Thr-Nva-Ile-Arg-ProNHCH2CH3 [Example 61]  83.7%
5. N-Ac-Sar-Gly-Val-D-Ile-Thr-Nva-Ile-Arg-ProNHethyl-(1-pyrrolidine) [Example 5]  87.2%
6. N-Ac-Sar-Gly-Val-D-Ile-Thr-Gln-Ile-Arg-ProNHCH2CH3 [Example 43]  94.1%

Same assay, conditions: 20 nM; migration stimulated with 15 ng/ml bFGF/VEGF; compared to positive control

In order of falling “% Inhib. @ 20 nM” value:
1. CCC[C@H](NC(=O)[C@@H](NC(=O)[C@H](NC(=O)[C@@H](NC(=O)CNC(=O)CN(C)C(C)=O)C(C)C)[C@H](C)CC)[C@@H](C)O)C(=O)N[C@H](C(=O)N[C@@H](CCCNC(=N)N)C(=O)N1CCC[C@H]1C(=O)NCC)[C@@H](C)CC [Example 1, N-Ac-Sar-Gly-Val-D-Ile-Thr-Nva-Ile-Arg-ProNHCH2CH3] (Ac-[Sar]GV[dI]T[Nva]IRP-NHEt)  87.3%
2. N-Ac-Sar-Gly-Val-D-Ile-Thr-Allylgly-Ile-Arg-ProNHCH2CH3 [Example 49]  83.4%
3. N-(2-Furoyl)-Sar-Gly-Val-D-Ile-Thr-Nva-Ile-Arg-ProNHCH2CH3 [Example 59]  82.3%
4. N-Succinyl-Sar-Gly-Val-D-Ile-Thr-Nva-Ile-Arg-ProNHCH2CH3 [Example 54]  81.3%
5. N-Ac-Sar-Gly-Val-D-Ile-Thr-Ala-Ile-Arg-ProNHCH2CH3 [Example 46]  77.5%
6. N-(2-Me-Nicotinyl)-Sar-Gly-Val-D-Ile-Thr-Nva-Ile-Arg-ProNHCH2CH3 [Example 53]  76.7%
7. H-Sar-Gly-Val-D-Ile-Thr-Nva-Ile-Arg-ProNHCH2CH3 [Example 66]  76.1%
8. N-Butyryl-Sar-Gly-Val-D-Ile-Thr-Nva-Ile-Arg-ProNHCH2CH3 [Example 60]  75.3%
9. N-Ac-Sar-Gly-Val-D-Ile-Thr-Nva-Ile-Arg-ProNHCH(CH3)2 [Example 4]  71.3%
10. N-Ac-Sar-Gly-Val-D-Ile-Thr-Nva-Ile-Arg-ProNHCH2CH2OCH3 [Example 11]  70.4%
11. N-Ac-Sar-Gly-Val-D-Ile-Thr-Val-Ile-Arg-ProNHCH2CH3 (Ac-[Sar]GV[dI]TVIRP-NHEt) [Example 47]  69.7%
12. N-Shikimyl-Sar-Gly-Val-D-Ile-Thr-Nva-Ile-Arg-ProNHCH2CH3 [Example 58]  68.8%
13. N-Ac-Sar-Gly-Val-D-Ile-Thr-Met-Ile-Arg-ProNHCH2CH3 (Ac-[Sar]GV[dI]TMIRP-NHEt; SMILES CCNC(=O)[C@@H]1CCCN1C(=O)[C@H](CCCNC(=N)N)NC(=O)[C@@H](NC(=O)[C@H](CCSC)NC(=O)[C@@H](NC(=O)[C@H](NC(=O)[C@@H](NC(=O)CNC(=O)CN(C)C(C)=O)C(C)C)[C@H](C)CC)[C@@H](C)O)[C@@H](C)CC) [Example 51]  67.0%
14. N-Ac-Sar-Gly-Val-D-Ile-Thr-DNva-Ile-Arg-ProNHCH2CH3 [Example 42]  60.2%
15. N-Nicotinyl-Sar-Gly-Val-D-Ile-Thr-Nva-Ile-Arg-ProNHCH2CH3 [Example 55]  59.2%
16. N-MeOacetyl-Sar-Gly-Val-D-Ile-Thr-Nva-Ile-Arg-ProNHCH2CH3 [Example 57]  56.6%
17. N-Propionyl-Sar-Gly-Val-D-Ile-Thr-Nva-Ile-Arg-ProNHCH2CH3 [Example 56]  49.9%
